Assay results reported in patent US5354892A, “Biaryl substituted 4-amino-butyric acid amides” (Ciba-Geigy Corporation, priority 1993, dated 1994).

Tests used:
[1] = system: rat plasma ANF concentration; assay: Effect on rat plasma ANF concentration (ANF-infused conscious rats, radioimmunoassay); format: in vivo; conditions: doses of about 1-30 mg/kg p.o., administered in 10% ethanol/PEG 400, ANF infusion 450 ng/kg/min i.v.
Method: The effect of the compounds of the invention on rat plasma ANF concentration can be determined as follows:
Male Sprague-Dawley rats (275-390 g) are anesthetized -with ketamine (150 mg/kg)/acepromazine (10%) and instrumented with catheters in the femoral artery and vein to obtain blood samples and infuse ANF. respectively. The rats are tethered with a swivel system and are allowed to recover for 24 hours before being studied in the conscious, unrestrained state.
In this assay, plasma ANF levels are determined in the presence and absence of NEP inhibition. On the day of study, all rats are infused continuously with ANF at 450 ng/kg/min. i.v. for the entire 5 hours of the experiment. Sixty minutes after beginning the infusion, blood samples for baseline ANF measurements are obtained (time 0) and the rats are then randomly divided into groups treated with the test compound or vehicle. Additional blood samples are taken 30, 60, 120, 180 and 240 minutes after administration of the test compound.
Plasma concentrations are determined by a specific radioimmunoassay. […] The supernatant is decanted and the pellets counted in a gamma counter. […] Plasma ANF levels are expressed as a percent of those measured in vehicle-treated animals which received ANF alone (450 ng/kg/min i.v.).

[2] = system: DOCA-salt hypertensive rats; assay: Antihypertensive effect in DOCA-salt hypertensive rats; format: in vivo; conditions: DOCA-salt hypertensive rat model; 30 mg/kg p.o., administered in PEG 400
Method: The antihypertensive effect can be determined in desoxycorticosterone acetate (DOCA)-salt hypertensive rats.
DOCA-salt hypertensive rats (280-380 g) are prepared by the standard method. Rats underwent a unilateral nephrectomy and one week later are implanted with silastic pellets containing 100 mg/kg of DOCA. The rats are maintained on 1% NaCl/0.2% KCl drinking water for three to five weeks until sustained hypertension is established. The antihypertensive activity is evaluated at this time.
Two days before an experiment, the rats are anesthetized with methoxyflurane and instrumented with catheters in the femoral artery to measure arterial blood pressure. Forty-eight hours later, baseline arterial pressure and heart rate are recorded during a 1 hour period. The test compound (30 mg/kg p.o.) or vehicle is then administered and the same cardiovascular parameters are monitored for an additional 5 hours.

CCOC(=O)[C@H](C)C[C@@H](Cc1ccc(-c2ccccc2)cc1)NC(=O)CCC(=O)O [N-(3-carboxy-1-oxopropyl)-(4S)-(p-phenylphenylmethyl)-4-amino-2R-methylbutanoic acid ethyl ester]
plasma ANF levels [1]: significant increases in plasma ANF levels | blood pressure [2]: significant reduction in blood pressure
